Reference: paper PMC5829162, “Rational Design, Synthesis and Biological Evaluation of Pyrimidine-4,6-diamine derivatives as Type-II inhibitors of FLT3 Selective Against c-KIT” (Scientific Reports, 2018)

Columns and labels:
FLT3 kinase = target: T1, FLT3 kinase (Homo sapiens, UniProt P36888); assay: Mechanism of inhibition (pre-incubation time and ATP concentration), FLT3; format: biochemical
T1 construct: purchased Invitrogen
T1 sequence (P36888 27-993): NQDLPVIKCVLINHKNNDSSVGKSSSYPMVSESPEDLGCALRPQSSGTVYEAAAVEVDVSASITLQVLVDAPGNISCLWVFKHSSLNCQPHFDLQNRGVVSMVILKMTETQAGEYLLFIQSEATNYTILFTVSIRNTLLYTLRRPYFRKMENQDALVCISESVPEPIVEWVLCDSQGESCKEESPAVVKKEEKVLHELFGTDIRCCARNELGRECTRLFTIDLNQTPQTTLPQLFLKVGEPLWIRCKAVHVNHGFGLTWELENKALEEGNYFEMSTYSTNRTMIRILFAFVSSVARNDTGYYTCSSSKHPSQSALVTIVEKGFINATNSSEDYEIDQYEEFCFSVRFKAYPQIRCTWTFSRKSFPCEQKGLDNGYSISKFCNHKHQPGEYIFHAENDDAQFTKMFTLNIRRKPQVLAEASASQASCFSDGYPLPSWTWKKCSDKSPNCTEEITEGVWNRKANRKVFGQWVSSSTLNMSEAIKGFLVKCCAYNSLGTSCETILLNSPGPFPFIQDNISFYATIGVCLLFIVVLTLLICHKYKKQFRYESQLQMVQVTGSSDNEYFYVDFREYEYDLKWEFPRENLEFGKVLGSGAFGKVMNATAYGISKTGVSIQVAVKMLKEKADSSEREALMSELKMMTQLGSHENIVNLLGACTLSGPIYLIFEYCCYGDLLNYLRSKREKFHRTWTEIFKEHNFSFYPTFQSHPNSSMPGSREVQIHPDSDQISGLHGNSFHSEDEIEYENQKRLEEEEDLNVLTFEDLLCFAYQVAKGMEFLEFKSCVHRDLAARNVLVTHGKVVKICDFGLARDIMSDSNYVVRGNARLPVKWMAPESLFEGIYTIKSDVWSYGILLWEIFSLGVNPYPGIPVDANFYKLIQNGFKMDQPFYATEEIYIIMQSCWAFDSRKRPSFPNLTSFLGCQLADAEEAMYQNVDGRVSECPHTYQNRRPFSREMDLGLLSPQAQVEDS
Description: Compound 13a was pre-incubated with the FLT3 kinase at 1, 3, 5, 10, 20, 30, 50, and 90 minutes. After the pre-incubation, IC50 values at each incubation interval was determined according to the procedure outlined in section 4.3. In a separate experiment, compound 13a was pre-incubated with the FLT3 kinase for 60 minutes. […] To determine IC50 values at each concentration of ATP, the same procedure was followed as outlined in section S10.
S10. Biochemical Inhibition Assay:1,2 Kinase activity was measured in a microfluidics assay that monitors the separation of a phosphorylated product from substrate. The assay was run using a 12-sipper chip on a Caliper EZ Reader II (PerkinElmer®, Walthman, USA) with separation buffer (100 mM HEPES, 10 mM EDTA, 0.015% Brij-35, 0.1% CR-3 [PerkinElmer®, Walthman, USA]). In 96-well polypropylene plates (Greiner, Frickenhausen, Germany) compound stocks (20 mM in DMSO) were diluted into kinase buffer (50 mM HEPES, 0.075% […]
dilutions (2 mM–6.32 nM). After, 1 μL was transferred into a 384-well polypropylene assay plate (Greiner, Frickenhausen, Germany). The FLT3 enzyme (Invitrogen™, Grand Island, USA) was diluted in kinase buffer to a concentration of 2 nM and 5 µL of the enzyme mixture was transferred to the assay plate. The inhibitors/FLT3 enzyme were incubated for 60 minutes with minor shaking. A substrate mix was prepared containing ATP (Ambresco®, Solon, USA) and 5FAM tagged FLT3 peptide (peptide #22, 5’ FAM-EPLYWSFPA, PerkinElmer®, Walthman, USA) dissolved in kinase buffer, and 5 µL of the substrate mix was added to the assay plate.
Running concentrations were as follows: ATP (190 µM), peptide (1.5 µM), compound 12-point ½log dilutions (0.2 mM–0.632 nM). For positive control, no inhibitor was added. For negative control, no enzyme was added. For running control, quizartinib was utilized. The plate was run until 10-20% conversion based on the positive control wells. The following separation conditions were utilized: upstream voltage -500V; downstream voltage, -1900V; chip pressure - 0.8. Percent inhibition was measured for each well comparing starting peptide to phosphorylated product peaks relative to the baseline. Dose response curves, spanning the IC50 dose, were generated in GraphPad Prisim 6 and fit to an exponential one-phase decay line and IC50 values were obtained from the half-life value of the curve. IC50 values were generated in duplicate and error was calculated from the standard deviation between values.
S11. Mechanism of Inhibition Procedure: Compound 13a was pre-incubated with the FLT3 kinase at 1, 3, 5, 10, 20, 30, 50, and 90 minutes. After the pre -incubation, IC50 values at each incubation interval was determined according to the procedure outlined in section 4.3. […]

FLT3-driven cell lines = assay: Cell-based studies, FLT3-driven cell lines overall; conditions: range over the FLT3 cell lines
Text: Stable BaF3 populations expressing activated FLT3 were generated by retroviral spinfection with the appropriate mutated plasmid followed by selection and growth factor withdrawal as previously described. The BaF3 cell line was originally obtained from the laboratory of Charles Sawyers and has not been authenticated. MV411 and Molm14 cells were obtained from the laboratory of Scott Kogan and authenticated by Promega STR analysis in June 2013. All cell lines were mycoplasma-free. Cells were incubated with compounds for 48 hours and proliferation was assessed using CellTiter-Glo (Promega; Madison, WI) according to the manufacturer’s recommendation on a SpectraMax M3 microplate reader using SpectraMax Software (Molecular Devices; Sunnyvale, CA). All cell viability data shown is reflective of experiments performed a minimum of three times. […]
S13. […]
2013. […] Cells were incubated with compounds for 48 hours and proliferation was assessed using CellTiter -Glo (Promega; Madison, WI) according to the manufacturer’s recommendation on a SpectraMax M3 microplate reader using SpectraMax Software (Molecular Devices; Sunnyvale, CA). […]

change of FLT3 IC50 from no incubation to a 90-minute pre-incubation (FLT3 kinase; p < 0.05): statistically significant decrease | pre-incubation required to reach maximal inhibition of the FLT3 kinase (FLT3 kinase; pre-incubation 1-90 minutes): approximately 60 minutes
SMILES: Cn1nc(C(C)(C)C)cc1NC(=O)Cc1ccc(Nc2cc(Nc3ccc(S(C)(=O)=O)cc3)ncn2)cc1 [13a, 2-(4-(6-(4-(Methylsulfonyl)phenylamino)pyrimidin-4-ylamino)phenyl)-N-(3-tert-butyl-1-methyl-1H-pyrazol-5-yl)acetamide]
effect of an increase in ATP concentration on FLT3 IC50 (FLT3 kinase; 5-160 µM ATP, 60 minutes pre-incubation, p > 0.05): did not cause a statistically significant increase | mechanism of inhibition (FLT3 kinase; from pre-incubation and ATP variation studies): non-competitive, Type-II kinase inhibitor | GI50 (FLT3-driven cell lines): 0.009 to 2 µM
